Assay results from patent US8835467B2, “SIR2 regulation” (Albert Einstein College of Medicine of Yeshiva University, priority 2003, dated 2014).
Several values for one entry are separate records, joined by “and”; a condition that tells them apart may be missing. Equal values may be shown once.

Assays:
Yeast SIR2p [1] = biological target: T1, Yeast SIR2p (Saccharomyces cerevisiae, UniProt P06700); assay: SIR2 deacetylation assay (p53 peptide, HPLC of ADPR and 3′-O-acetyl-ADPR); assay type: biochemical
T1 construct: made in house
T1 sequence (P06700 whole entry): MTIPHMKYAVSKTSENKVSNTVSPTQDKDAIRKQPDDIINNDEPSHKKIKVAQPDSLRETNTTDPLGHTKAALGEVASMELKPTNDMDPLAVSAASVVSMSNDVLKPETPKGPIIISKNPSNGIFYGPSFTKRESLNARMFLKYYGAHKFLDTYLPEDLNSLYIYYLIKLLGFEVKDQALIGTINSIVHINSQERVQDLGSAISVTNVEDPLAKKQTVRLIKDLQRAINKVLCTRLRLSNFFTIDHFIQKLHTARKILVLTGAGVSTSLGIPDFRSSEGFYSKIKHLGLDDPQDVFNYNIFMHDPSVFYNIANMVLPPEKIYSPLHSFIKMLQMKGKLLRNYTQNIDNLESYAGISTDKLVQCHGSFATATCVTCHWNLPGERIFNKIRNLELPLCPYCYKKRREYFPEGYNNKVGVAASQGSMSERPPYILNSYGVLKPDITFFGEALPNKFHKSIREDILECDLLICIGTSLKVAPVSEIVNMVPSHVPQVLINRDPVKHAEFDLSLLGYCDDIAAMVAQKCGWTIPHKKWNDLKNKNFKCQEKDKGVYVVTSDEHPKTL
Protocol: (§1) After 2 hours, aliquots of 10 μL removed at 0, 30, 60, 90 and 120 min. Each aliquot was combined with 50 μL 50 mM ammonium acetate pH 5.0 to quench and assayed by HPLC for deacetylation products and NAD^+. The chromatograms (260 nm) were obtained using 50 mM ammonium acetate pH 5.0 as eluant on a semi-preparative Waters C-18 column (2.0 mL/min flow rate). Peaks for ADPR and 3′-O-Acetyl-ADPR were quantified by integration. The peak for NAD^+ was collected and radiation counted.
(§2) Reactions were as above but base reactions contained 5 mM of pyrazinamide, isonicotinamide, thionicotinamide, or benzamide. Reactions were carried out (2 hours for AF2 and yeast enzymes and 3 hours for mouse enzyme) at 37° C. and quenched by addition of 80 μL 50 mM ammonium acetate pH 5.0. Product formation was quantified by HPLC. […] Rates were compared with controls lacking added base.

[2] = biological target: T2, Mouse SIR2 enzyme (SIR2α) (Mus musculus, UniProt Q923E4); assay: as above; assay type: biochemical
T2 construct: purchased Upstate Group
T2 sequence (Q923E4 1-737): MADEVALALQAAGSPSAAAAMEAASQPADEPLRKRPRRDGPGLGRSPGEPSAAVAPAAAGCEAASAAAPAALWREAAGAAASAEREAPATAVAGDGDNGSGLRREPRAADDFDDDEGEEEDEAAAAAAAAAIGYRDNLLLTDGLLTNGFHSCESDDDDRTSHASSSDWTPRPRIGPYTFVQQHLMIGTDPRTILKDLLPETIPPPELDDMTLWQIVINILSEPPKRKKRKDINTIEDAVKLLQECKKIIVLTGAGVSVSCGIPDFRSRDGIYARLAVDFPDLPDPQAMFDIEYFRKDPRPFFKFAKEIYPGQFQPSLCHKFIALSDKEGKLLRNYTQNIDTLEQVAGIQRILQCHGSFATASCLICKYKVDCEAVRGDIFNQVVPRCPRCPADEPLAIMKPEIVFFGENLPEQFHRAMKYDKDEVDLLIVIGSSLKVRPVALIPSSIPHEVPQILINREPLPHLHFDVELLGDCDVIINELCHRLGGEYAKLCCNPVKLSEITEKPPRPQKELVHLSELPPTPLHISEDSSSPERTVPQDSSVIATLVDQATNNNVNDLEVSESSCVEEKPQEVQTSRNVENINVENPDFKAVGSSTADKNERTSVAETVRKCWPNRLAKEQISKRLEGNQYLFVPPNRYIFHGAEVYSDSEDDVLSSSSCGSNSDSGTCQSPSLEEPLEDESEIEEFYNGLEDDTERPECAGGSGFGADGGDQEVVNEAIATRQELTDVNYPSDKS
Protocol: as §1, §2

Bacterial SIR2Af2 [3] = biological target: T3, Bacterial SIR2Af2 (Archaeoglobus fulgidus, UniProt O30124); assay: as above; assay type: biochemical, Archeaglobus fulgidus
T3 construct: made in house
T3 sequence (O30124 1-253): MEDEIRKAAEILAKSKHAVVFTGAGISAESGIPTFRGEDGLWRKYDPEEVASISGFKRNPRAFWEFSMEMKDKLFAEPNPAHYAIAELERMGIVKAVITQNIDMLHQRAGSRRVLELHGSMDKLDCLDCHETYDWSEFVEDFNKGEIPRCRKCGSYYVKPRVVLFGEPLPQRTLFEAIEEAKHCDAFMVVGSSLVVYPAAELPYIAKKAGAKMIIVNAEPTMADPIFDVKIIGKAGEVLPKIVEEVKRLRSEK
Protocol: as §1, with “counted. […] Plots of deacetylation rate versus nicotinamide were fit to the equations described in the text.” for “counted.”
Reactions were as above but base reactions contained 5 mM of pyrazinamide, isonicotinamide, thionicotinamide, or benzamide. Reactions were carried out (2 hours for AF2 and yeast enzymes and 3 hours for mouse enzyme) at 37° C. and quenched by addition of 80 μL 50 mM ammonium acetate pH 5.0. Product formation was quantified by HPLC. Thionicotinamide-NAD^+ was synthesized by CD38. Rates were compared with controls lacking added base.

Af2Sir2 (archaean) [4] = biological target: T4, Af2Sir2 (archaean) (Archaeoglobus fulgidus, UniProt O30124); assay: HPLC assay of base exchange, histone H4 substrate (Example 3); settings: Archaea enzyme
T4 sequence (O30124 1-253): T3 sequence (O30124 1-253)
Protocol: (§3) NAD^+ in 50 μL 50 mM potassium phosphate pH 7.0. Each solution also contained a variable amount of 2-Fluoronicotinamide with concentrations of 0, 5, 10, 20, 40 and 80 mM of the compound. […] Deacetylation was assayed by integration of the peaks for AADPR and ADPR in reaction mixtures.

Af2Sir2 (archaean) [5] = biological target: T4, Af2Sir2 (archaean); assay: HPLC assay of deacetylation, histone H4 substrate (Example 3); assay type: biochemical; settings: Archaea enzyme
Protocol: as §3

Sir2p (yeast) [6] = biological target: T5, Sir2p (yeast) (Saccharomyces cerevisiae, UniProt P06700); assay: HPLC assay of base exchange, histone H4 substrate (Example 3); assay type: biochemical; settings: for % rate (base exchange) / Cpm/sample (radioactivity in NAD peak): Yeast enzyme
T5 sequence (P06700 whole entry): as the sequence (P06700 whole entry) above

Sir2p (yeast) [7] = biological target: T5, Sir2p (yeast); assay: HPLC assay of deacetylation, histone H4 substrate (Example 3); assay type: biochemical; settings: Yeast enzyme
Af2Sir2 (archaean) [8] = biological target: T4, Af2Sir2 (archaean); assay: biochemical
Protocol: as §3

Bacterial SIR2Af2 [9] = biological target: T3, Bacterial SIR2Af2; assay: SIR2 nicotinamide base-exchange assay (p53 peptide, HPLC/14C); assay type: biochemical, Archeaglobus fulgidus; parameters: kcat (exchange): dose or concentration left out as unconfirmed
Protocol: as §1, with “counted. […] Plots of deacetylation rate versus nicotinamide were fit to the equations described in the text.” for “counted.”

Yeast Sir2 = Yeast Sir2 (Saccharomyces cerevisiae, UniProt P06700); assay: Sir2 catalyzed deacetylation of H4 N-terminal peptide; assay type: biochemical; settings: Ki, apparent nicotinamide inhibition constant (deacetylation)
Yeast Sir2, sequence (P06700 whole entry): as the sequence (P06700 whole entry) above
Protocol: Measurements were performed by methods described in Sauve and Schramm (2003) with the H4N-terminal peptide (AGG(AcK)GG(AcK)GMG(AcK)VGA(AcK)RHSC) (Imai et al., 2000) as substrate.

Yeast SIR2p [10] = biological target: T1, Yeast SIR2p; assay: SIR2 nicotinamide base-exchange assay (p53 peptide, HPLC/14C); assay type: biochemical; parameters: kcat (exchange): dose or concentration left out as unconfirmed
Protocol: as §1

[11] = biological target: T2, Mouse SIR2 enzyme (SIR2α); assay: as above; assay type: biochemical; parameters: kcat (exchange): dose or concentration left out as unconfirmed
Protocol: as §1

[12] = tested on: Sir2-dependent transcriptional silencing at the silent mating-type loci (HMR, HML); assay: Silent mating-type locus reporter silencing, spot assay; assay type: cell-based, yeast
Protocol: The photographs were taken after 2 to 3 days incubation. […] Isogenic strains UCC4562 (DOT1) and UCC4554 (dot1Δ) (Singer et al., 1998) are shown in each panel (top and bottom rows, respectively). […] The phenotype of strain CCFY10028 (top row) is compared to an isogenic sir2 derivative (bottom row). The sir2 deletion strain was generated by PCR-mediated gene disruption using a Nat-MX selectable marker (Tong et al., 2004).
The deletion strains were generated by PCR-mediated gene disruption using a Nat-MX selectable marker (Tong et al., 2004). Silencing at TEL-VR::URA3 is reported by survival on FOA-containing media and at HMR::TRP1 is detected by reduced growth on media lacking tryptophan.
The effect of isonicotinamide on Sir2 activity at the silent mating-type loci was measured in an HMR: TRP1 strain by growth on medium lacking tryptophan (FIG. 8b). Silencing of TRP1 decreases growth on Trp^− media.

NC(=O)c1cnccn1 [Pyrazinamide]
inhibition at 5000 µM (Yeast SIR2p [1]): 1%
inhibition at 5000 µM [2]: 1%
inhibition at 5000 µM (Bacterial SIR2Af2 [3]): 4%

NC(=O)c1cccnc1F
% rate (base exchange) (Af2Sir2 (archaean) [4]; 5 mM): 91%
Cpm/sample (radioactivity in NAD peak) (Af2Sir2 (archaean) [4]; 5 mM): 18,200 Cpm/sample
% rate (base exchange) (Af2Sir2 (archaean) [4]; 10 mM): 80%
Cpm/sample (radioactivity in NAD peak) (Af2Sir2 (archaean) [4]; 10 mM): 16,100 Cpm/sample
% rate (base exchange) (Af2Sir2 (archaean) [4]; 20 mM): 73%
Cpm/sample (radioactivity in NAD peak) (Af2Sir2 (archaean) [4]; 20 mM): 14,600 Cpm/sample
% rate (base exchange) (Af2Sir2 (archaean) [4]; 40 mM): 50%
Cpm/sample (radioactivity in NAD peak) (Af2Sir2 (archaean) [4]; 40 mM): 10,300 Cpm/sample
% rate (base exchange) (Af2Sir2 (archaean) [4]; 80 mM): 35%
Cpm/sample (radioactivity in NAD peak) (Af2Sir2 (archaean) [4]; 80 mM): 7,000 Cpm/sample
% rate (deacetylation) (Af2Sir2 (archaean) [5]; 5 mM): 100%
% rate (deacetylation) (Af2Sir2 (archaean) [5]; 10 mM): 100%
% rate (deacetylation) (Af2Sir2 (archaean) [5]; 20 mM): 100%
% rate (deacetylation) (Af2Sir2 (archaean) [5]; 40 mM): 100%
% rate (deacetylation) (Af2Sir2 (archaean) [5]; 80 mM): 100%
Ki (Sir2p (yeast) [6]): 20000 µM
% rate (base exchange) (Sir2p (yeast) [6]; 5 mM): 76%
Cpm/sample (radioactivity in NAD peak) (Sir2p (yeast) [6]; 5 mM): 24,500 Cpm/sample
% rate (base exchange) (Sir2p (yeast) [6]; 10 mM): 58%
Cpm/sample (radioactivity in NAD peak) (Sir2p (yeast) [6]; 10 mM): 18,800 Cpm/sample
% rate (base exchange) (Sir2p (yeast) [6]; 20 mM): 47%
Cpm/sample (radioactivity in NAD peak) (Sir2p (yeast) [6]; 20 mM): 15,200 Cpm/sample
% rate (base exchange) (Sir2p (yeast) [6]; 40 mM): 36%
Cpm/sample (radioactivity in NAD peak) (Sir2p (yeast) [6]; 40 mM): 11,600 Cpm/sample
% rate (base exchange) (Sir2p (yeast) [6]; 80 mM): 28%
Cpm/sample (radioactivity in NAD peak) (Sir2p (yeast) [6]; 80 mM): 9,000 Cpm/sample
% rate (deacetylation) (Sir2p (yeast) [7]; 5 mM): 100%
% rate (deacetylation) (Sir2p (yeast) [7]; 10 mM): 97%
% rate (deacetylation) (Sir2p (yeast) [7]; 20 mM): 100%
% rate (deacetylation) (Sir2p (yeast) [7]; 40 mM): 95%
% rate (deacetylation) (Sir2p (yeast) [7]; 80 mM): 95%
Ki (Af2Sir2 (archaean) [8]): 43000 µM

NC(=S)c1cccnc1 [Thionicotinamide]
inhibition at 5000 µM (Yeast SIR2p [1]): 15%
inhibition at 5000 µM [2]: 16%
inhibition at 5000 µM (Bacterial SIR2Af2 [3]): 4%

NC(=O)c1ccccc1 [Benzamide]
inhibition at 5000 µM (Yeast SIR2p [1]): 0%
inhibition at 5000 µM [2]: 44%
inhibition at 5000 µM (Bacterial SIR2Af2 [3]): 5%

NC(=O)c1cccnc1 [nicotinamide]
Ki (Yeast SIR2p [1]): 120 ± 25 µM
intermediate returned to acetylated protein (Yeast SIR2p [1]; yeast SIR2, saturation of the nicotinamide site): 65%
reduction of deacetylation rate by nicotinamide (Yeast SIR2p [1]; yeast enzyme, high (millimolar) nicotinamide): 65%
kinh (deacetylation), residual deacetylation rate (Yeast SIR2p [1]; yeast enzyme, in the presence of 2 mM nicotinamide): 0.60 ± 0.08 min⁻¹
Ki [2]: 160 µM
intermediate returned to acetylated protein ([2]; mouse SIR2, saturation of the nicotinamide site): 95%
inhibition of deacetylation by nicotinamide ([2]; mouse enzyme, high nicotinamide concentrations): > 95% and 95%
kinh (deacetylation), residual deacetylation rate ([2]; mouse enzyme, in the presence of 2 mM nicotinamide): 0.014 ± 0.002 min⁻¹
Ki (Bacterial SIR2Af2 [9]): > 8000 µM
kcat (exchange) (Bacterial SIR2Af2 [9]; bacterial enzyme, from nicotinamide saturation curves, pH 7.8): 0.00583 ± 0.00067 s⁻¹
Ki (Yeast Sir2; 0 mM isonicotinamide): 100 µM
Ki (Yeast Sir2; 60 mM isonicotinamide): 180 µM
Ki (Yeast Sir2; 100 mM isonicotinamide): 330 µM
Ki (Yeast SIR2p [10]): > 8000 µM
kcat (exchange) (Yeast SIR2p [10]; yeast enzyme, from nicotinamide saturation curves, pH 7.8): 0.0967 ± 0.0067 s⁻¹
Ki [11]: > 8000 µM
kcat (exchange) ([11]; mouse enzyme, from nicotinamide saturation curves, pH 7.8): 0.05 ± 0.0033 s⁻¹
Ki (Bacterial SIR2Af2 [3]): 26 ± 4 µM
intermediate returned to acetylated protein (Bacterial SIR2Af2 [3]; bacterial SIR2, saturation of the nicotinamide site): 21%
reduction of deacetylation rate by nicotinamide (Bacterial SIR2Af2 [3]; bacterial enzyme, high (>10 Ki) nicotinamide): 21%
kinh (deacetylation), residual deacetylation rate (Bacterial SIR2Af2 [3]; bacterial enzyme, in the presence of 2 mM nicotinamide): 1.4 ± 0.2 min⁻¹
growth phenotype of isogenic sir2Δ strain ([12]; HMR::TRP1, Trp− medium): Neither compound altered the growth phenotype
growth on Trp− medium ([12]; HMR::TRP1 strain, 5 mM nicotinamide): increased growth
